According to patent publication US20240025912A1 (Merck Sharp & Dohme LLC, priority 2022, published 2024):

Biological target: GST-RIPK1 (recombinant GST-RIPK1 kinase domain (residues 1-327)) (Homo sapiens (Human), UniProt Q13546)
Test: RIPK1-ADP-Glo Enzymatic Assay
Type: biochemical
Settings: 25 nM GST-RIPK1, 300 μM ATP, 3 μM dephosphorylated-MBP, 30 min pre-incubation, 150 min reaction
Procedure: The enzymatic activity of RIPK1 is measured using an assay derived from ADP-Glo kit (TMPromega), which provides a luminescent-based ADP detection system. Specifically, the ADP generated by RIPK1 kinase is proportionally detected as luminescent signals in a homogenous fashion. In this context, the assessment of the inhibitory effect of small molecules (EC50) is measured by the effectiveness of the compounds to inhibit the ATP to ADP conversion by RIPK1.
In this assay, the potency (EC50) of each compound was determined from a ten-point (1:3 serial dilution; top compound concentration of 100000 nM) titration curve using the following outlined procedure. To each well of a white ProxiPlus 384 well-plate, 30 nL of compound (1% DMSO in final assay volume of 3 μL) was dispensed, followed by the addition of 2 μL of 1× assay buffer (25 mM Hepes 7.3, 20 mM MgCl2, 50 mM NaCl, 1 mM DTT, 0.005% Tween20, and 0.02% BSA) containing 37.5 nM of GST-RIPK1 (recombinant GST-RIPK1 kinase domain (residues 1-327) enzyme produced from baculovirus-transfected Sf21 cells: MW 62 kDa). Plates were placed in an ambient temperature humidified chamber for a 30 min pre-incubation with compound. Subsequently, each reaction was initiated by the addition of 1 μL 1× assay buffer containing 900 μM ATP and 3 μM dephosphorylated-MBP substrate. The final reaction in each well of 3 μL consists of 25 nM of GST-RIPK1, 300 μM ATP, and 3 μM dephosphorylated-MBP. Kinase reactions were allowed to proceed for 150 min prior to adding ADP-Glo reagents per Promega's outlined kit protocol. Dose-response curves were generated by plotting percent effect (% product conversion; Y-axis) vs. Log 10 compound concentrations (X-axis). EC50 values were calculated using a non-linear regression, four-parameters sigmoidal dose-response model.

GST-RIPK1 (recombinant GST-RIPK1 kinase domain (residues 1-327)), sequence (Q13546 1-327): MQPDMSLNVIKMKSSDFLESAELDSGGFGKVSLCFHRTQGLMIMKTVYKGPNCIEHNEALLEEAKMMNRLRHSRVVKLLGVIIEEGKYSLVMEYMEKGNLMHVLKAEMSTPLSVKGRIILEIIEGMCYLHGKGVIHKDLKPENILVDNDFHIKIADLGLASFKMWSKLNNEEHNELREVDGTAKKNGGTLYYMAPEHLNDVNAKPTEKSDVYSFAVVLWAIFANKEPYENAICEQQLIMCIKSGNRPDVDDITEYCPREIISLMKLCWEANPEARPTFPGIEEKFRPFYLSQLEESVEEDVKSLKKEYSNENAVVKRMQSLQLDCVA

Compound	EC50 [nM]
N#CC12CC(n3nc4n(c3=O)[C@H](c3cc(F)cc(F)c3)CS4)(C1)C2 [Compound 1-65, (R)-3-(5-(3,5-difluorophenyl)-3-oxo-5,6-dihydrothiazolo[2,3-c][1,2,4]triazol-2(3H)-yl)bicyclo[1.1.1]pentane-1-carbonitrile]	21.1
O=c1n(C23CC(F)(C2)C3)nc2n1[C@H](c1cc(F)c(F)c(F)c1)CC2 [Compound 1-76, (S)-2-(3-fluorobicyclo[1.1.1]pentan-1-yl)-5-(3,4,5-trifluorophenyl)-2,5,6,7-tetrahydro-3H-pyrrolo[2,1-c][1,2,4]triazol-3-one]	27.5
O=c1n(C23CC(C(F)F)(C2)C3)nc2n1[C@H](c1cncc(F)c1)CC2 [Compound 1-57, (S)-2-(3-(difluoromethyl)bicyclo[1.1.1]pentan-1-yl)-5-(5-fluoropyridin-3-yl)-2,5,6,7-tetrahydro-3H-pyrrolo[2,1-c][1,2,4]triazol-3-one]	369
N#CC12CC(n3nc4n(c3=O)[C@H](c3ccc(F)cc3F)CC4)(C1)C2 [Compound 1-47, (S)-3-(5-(2,4-difluorophenyl)-3-oxo-6,7-dihydro-3H-pyrrolo[2,1-c][1,2,4]triazol-2(5H)-yl)bicyclo[1.1.1]pentane-1-carbonitrile]	86.4
N#CC12CCC(n3nc4n(c3=O)[C@H](c3ccccc3)CC4)(CC1)C2 [Compound 1-30, 4-[(5S)-3-oxo-5-phenyl-6,7-dihydro-3H-pyrrolo[2,1-c][1,2,4]triazol-2(5H)-yl]bicyclo[2.2.1]heptane-1-carbonitrile]	87.4
O=c1n(C23CCC(C2)C3)nc2n1[C@H](c1cc(F)cc(F)c1)CC2 [Compound 1-4, (5S)-2-(bicyclo[2.1.1]hexan-1-yl)-5-(3,5-difluorophenyl)-2,5,6,7-tetrahydro-3H-pyrrolo[2,1-c][1,2,4]triazol-3-one]	31.1
Cc1c(F)cc([C@@H]2CCc3nn(C45CC(F)(C4)C5)c(=O)n32)cc1F [Compound 1-56, (S)-5-(3,5-difluoro-4-methylphenyl)-2-(3-fluorobicyclo[1.1.1]pentan-1-yl)-2,5,6,7-tetrahydro-3H-pyrrolo[2,1-c][1,2,4]triazol-3-one]	15.8
O=c1n(C23CC(Cl)(C2)C3)nc2n1[C@H](c1cc(F)cc(F)c1)CC2 [Compound 1-8, (5S)-2-(3-chlorobicyclo[1.1.1]pentan-1-yl)-5-(3,5-difluorophenyl)-2,5,6,7-tetrahydro-3H-pyrrolo[2,1-c][1,2,4]triazol-3-one]	21.8
N#CC12CC(n3nc4n(c3=O)[C@H](c3cncc(Cl)c3)CC4)(C1)C2 [Compound 1-22, (S)-3-(5-(5-chloropyridin-3-yl)-3-oxo-6,7-dihydro-3H-pyrrolo[2,1-c][1,2,4]triazol-2(5H)-yl)bicyclo[1.1.1]pentane-1-carbonitrile]	485
O=c1n(C23CCC(C(F)F)(CC2)C3)nc2n1[C@H](c1cc(F)cc(F)c1)CC2 [Compound 1-27, (5S)-2-[4-(difluoromethyl)bicyclo[2.2.1]heptan-1-yl]-5-(3,5-difluorophenyl)-2,5,6,7-tetrahydro-3H-pyrrolo[2,1-c][1,2,4]triazol-3-one]	537
CC12CC(n3nc4n(c3=O)[C@H](c3cc(F)cc(F)c3)CC4)(CO1)C2 [Compound 1-14, (5S)-5-(3,5-difluorophenyl)-2-(1-methyl-2-oxabicyclo[2.1.1]hexan-4-yl)-2,5,6,7-tetrahydro-3H-pyrrolo[2,1-c][1,2,4]triazol-3-one]	152
COC(=O)C12CC(n3nc4n(c3=O)[C@H](c3cc(F)cc(F)c3)CC4)(C1)C2(F)F [Compound 1-36, methyl 3-[(5S)-5-(3,5-difluorophenyl)-3-oxo-6,7-dihydro-3H-pyrrolo[2,1-c][1,2,4]triazol-2(5H)-yl]-2,2-difluorobicyclo[1.1.1]pentane-1-carboxylate]	61.9
O=c1n(C23CC(F)(C2)C3)nc2n1[C@H](c1cc(F)cc(F)c1)CC2 [Compound 1-2, (5S)-5-(3,5-difluorophenyl)-2-(3-fluorobicyclo[1.1.1]pentan-1-yl)-2,5,6,7-tetrahydro-3H-pyrrolo[2,1-c][1,2,4]triazol-3-one]	22.8
O=c1n(C23CCC(C2)C3)nc2n1[C@H](c1cnccn1)CC2 [Compound 1-61, (S)-2-(bicyclo[2.1.1]hexan-1-yl)-5-(pyrazin-2-yl)-2,5,6,7-tetrahydro-3H-pyrrolo[2,1-c][1,2,4]triazol-3-one]	696
O=c1n(C23CC(F)(C2)C3)nc2n1[C@H](c1ccc(Cl)cc1)CC2 [Compound 1-45, (S)-5-(4-chlorophenyl)-2-(3-fluorobicyclo[1.1.1]pentan-1-yl)-2,5,6,7-tetrahydro-3H-pyrrolo[2,1-c][1,2,4]triazol-3-one]	37.7
N#CC12CC(n3nc4n(c3=O)[C@@H](c3cc(F)cc(F)c3)CS4)(C1)C2 [Compound 1-64, (S)-3-(5-(3,5-difluorophenyl)-3-oxo-5,6-dihydrothiazolo[2,3-c][1,2,4]triazol-2(3H)-yl)bicyclo[1.1.1]pentane-1-carbonitrile]	395

The remaining lines, values ahead:

EC50 [nM]	Compound
259	COc1cc(F)cc(C2CCc3nn(C45CC(F)(C4)C5)c(=O)n32)c1 (racemic) [Compound 4-2, (±)-5-(3-fluoro-5-methoxyphenyl)-2-(3-fluorobicyclo[1.1.1]pentan-1-yl)-2,5,6,7-tetrahydro-3H-pyrrolo[2,1-c][1,2,4]triazol-3-one]
274	N#CC12CC(n3nc4n(c3=O)[C@H](c3cc(F)cc(F)c3)CC4F)(C1)C2 (single isomer, unassigned) [Compound 6-5, 3-[(5S)-5-(3,5-difluorophenyl)-7-(S or R)-fluoro-3-oxo-6,7-dihydro-3H-pyrrolo[2,1-c][1,2,4]triazol-2(5H)-yl]bicyclo[1.1.1]pentane-1-carbonitrile]
90.2	N#CC12CC(n3nc4n(c3=O)[C@H](c3ccc(C(F)F)cc3)CC4)(C1)C2 [Compound 7-1, (S)-3-(5-(4-(difluoromethyl)phenyl)-3-oxo-6,7-dihydro-3H-pyrrolo[2,1-c][1,2,4]triazol-2(5H)-yl)bicyclo[1.1.1]pentane-1-carbonitrile]
17	Cc1cc(F)cc([C@@H]2CCc3nn(C45CC(F)(C4)C5)c(=O)n32)c1 [Compound 4-9, (S)-5-(3-fluoro-5-methylphenyl)-2-(3-fluorobicyclo[1.1.1]pentan-1-yl)-2,5,6,7-tetrahydro-3H-pyrrolo[2,1-c][1,2,4]triazol-3-one]
143	COC(=O)C12CC(n3nc4n(c3=O)[C@H](c3ccccc3)CC4)(C1)C2(F)F [Compound 3-2, methyl (S)-2,2-difluoro-3-(3-oxo-5-phenyl-6,7-dihydro-3H-pyrrolo[2,1-c][1,2,4]triazol-2(5H)-yl)bicyclo[1.1.1]pentane-1-carboxylate]
198	Cc1cnc([C@@H]2CCc3nn(C45CC(F)(C4)C5)c(=O)n32)cn1 [Compound 4-14, (S)-2-(3-fluorobicyclo[1.1.1]pentan-1-yl)-5-(5-methylpyrazin-2-yl)-2,5,6,7-tetrahydro-3H-pyrrolo[2,1-c][1,2,4]triazol-3-one]
18.4	O=c1n(C23CC(F)(C2)C3)nc2n1[C@H](c1cc(F)cc(F)c1)CC2F (single isomer, unassigned) [Compound 6-2, (5S)-5-(3,5-difluorophenyl)-7-(S or R)-fluoro-2-(3-fluorobicyclo[1.1.1]pentan-1-yl)-2,5,6,7-tetrahydro-3H-pyrrolo[2,1-c][1,2,4]triazol-3-one]
